Data: patent US20090062251A1, “Novel Compounds 002” (ASTRAZENECA AB, priority 2007, published 2009)

Assays:
[1] = target: T1, Human CB1 receptor (hCB1) (Homo sapiens, UniProt P21554); assay: hCB1 receptor binding (3H-CP55,940 displacement); settings: hCB1 membranes, Ki=IC50/(1+[rad]/Kd)
T1 construct: purchased Receptor Biology
Outline: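 Human CB1 membranes in Tris buffer pH 7.4 with 2.5 mM EDTA, 5 mM MgCl2 and 0.5 mg/mL fatty-acid-free BSA, incubated 60 min at room temperature with [3H]CP55,940.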

[2] = target: T1, Human CB1 receptor (hCB1); assay: hCB1 GTPγS binding; format: biochemical; settings: for EC50: hCB1 membranes, GTPγ35S, 10-point dose-response; for Emax: maximal stimulated binding determined with 10 μM Win 55,212-2
Outline: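 Human CB1 membranes in 50 mM Hepes, 100 mM NaCl, 1 mM EDTA, 5 mM MgCl2, 0.1% BSA, pH 7.4 were preincubated 5 min with GDP (30 μM final). Basal and maximal binding were defined without or with 10 μM Win 55,212-2; incubation 60 min RT; filter-bound radioactivity counted. Antagonist reversal used fixed antagonist with agonist curve, or fixed agonist with antagonist curve.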

T1 sequence (P21554 whole entry): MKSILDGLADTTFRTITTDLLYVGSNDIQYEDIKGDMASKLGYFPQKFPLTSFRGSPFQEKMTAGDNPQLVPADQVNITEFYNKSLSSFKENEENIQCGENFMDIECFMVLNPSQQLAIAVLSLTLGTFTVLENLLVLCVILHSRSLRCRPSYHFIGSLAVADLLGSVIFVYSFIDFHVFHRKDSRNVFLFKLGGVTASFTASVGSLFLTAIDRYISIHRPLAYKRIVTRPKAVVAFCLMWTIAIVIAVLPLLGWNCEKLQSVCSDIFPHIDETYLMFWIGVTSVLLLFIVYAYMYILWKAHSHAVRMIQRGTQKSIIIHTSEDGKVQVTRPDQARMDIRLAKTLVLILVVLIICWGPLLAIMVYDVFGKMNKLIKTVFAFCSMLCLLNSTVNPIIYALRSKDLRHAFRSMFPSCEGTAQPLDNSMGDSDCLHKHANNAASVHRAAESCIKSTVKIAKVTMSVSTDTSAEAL

Row | SMILES | Ki [1] | EC50 [2] | Emax [2]
1 | CCN(CC(=O)NCCCO)C(=O)c1ccc2c(c1)c1c(n2S(=O)(=O)CC)CCC(C2CCOCC2)C1 (stereo not drawn) [N-ethyl-9-ethylsulfonyl-N-(3-hydroxypropylcarbamoylmethyl)-6-(oxan-4-yl)-5,6,7,8-tetrahydrocarbazole-3-carboxamide] | 0.0458 µM | 0.0533 µM | 126%
2 | Cn1c2c(c3cc(C(=O)N4CCCC(C(=O)NC5CC5)C4)ccc31)CC(C1CCOCC1)CC2 (stereo not drawn) [N-cyclopropyl-1-[9-methyl-6-(oxan-4-yl)5,6,7,8-tetrahydrocarbazole-3-carbonyl]piperidine-3-carboxamide] | 0.0324 µM | 0.128 µM | 115%
3 | CCN(CC(=O)NCCC#N)C(=O)c1ccc2c(c1)c1c(n2S(=O)(=O)CC)CCC(C2CCOCC2)C1 (stereo not drawn) [N-(2-cyanoethylcarbamoylmethyl)-N-ethyl-9-ethylsulfonyl-6-(oxan-4-yl)-5,6,7,8-tetrahydrocarbazole-3-carboxamide] | 0.115 µM | 0.12 µM | 115%
4 | CCN(CC(=O)NCC(F)(F)F)C(=O)c1ccc2c(c1)c1c(n2S(=O)(=O)CC)CCC(C2CCOCC2)C1 (stereo not drawn) [N-ethyl-9-ethylsulfonyl-6-(oxan-4-yl)-N-(2,2,2-trifluoroethylcarbamoylmethyl)-5,6,7,8-tetrahydrocarbazole-3-carboxamide] | 0.0251 µM | 0.0514 µM | 112%
5 | Cn1c2c(c3cc(C(=O)N4CC(C(=O)NC5CC5)C4)ccc31)CC(C1CCOCC1)CC2 (stereo not drawn) [N-cyclopropyl-1-[9-methyl-6-(oxan-4-yl)5,6,7,8-tetrahydrocarbazole-3-carbonyl]azetidine-3-carboxamide] | 0.107 µM | 0.274 µM | 121%
6 | CCN(CC(=O)NC1CC1)C(=O)c1ccc2c(c1)c1c(n2CC2CC2)CCC(C2CCOCC2)C1 (stereo not drawn) [N-(cyclopropylcarbamoylmethyl)-9-(cyclopropylmethyl)-N-ethyl-6-(oxan-4-yl)-5,6,7,8-tetrahydrocarbazole-3-carboxamide] | 0.0212 µM | 0.0342 µM | 91%
7 | Cn1c2c(c3cc(C(=O)N4CCC(C(=O)NC5CC5)CC4)ccc31)CC(C1CCOCC1)CC2 (stereo not drawn) [N-cyclopropyl-1-[9-methyl-6-(oxan-4-yl)5,6,7,8-tetrahydrocarbazole-3-carbonyl]piperidine-4-carboxamide] | 0.118 µM | 0.214 µM | 102%
8 | CCn1c2c(c3cc(C(=O)N(C)CCCC(=O)NCC(F)(F)F)ccc31)CC(C1CCOCC1)CC2 (stereo not drawn) [9-ethyl-N-methyl-6-(oxan-4-yl)-N-[3-(2,2,2-trifluoroethylcarbamoyl)propyl]-5,6,7,8-tetrahydrocarbazole-3-carboxamide] | 0.11 µM | 0.228 µM | 98%
9 | Cn1c2c(c3cc(C(=O)N4CCCC(NC(=O)C5CC5)C4)ccc31)CC(C1CCOCC1)CC2 (stereo not drawn) [N-[1-[9-methyl-6-(oxan-4-yl)5,6,7,8-tetrahydrocarbazole-3-carbonyl]-3-piperidyl]cyclopropanecarboxamide] | 0.0267 µM | 0.0406 µM | 115%
10 | CCn1c2c(c3cc(C(=O)N4CCC(C)CC4)ccc31)CC(C1CCCCC1)CC2 (stereo not drawn) [(6-cyclohexyl-9-ethyl-5,6,7,8-tetrahydrocarbazol-3-yl)-(4-methyl-1-piperidyl)methanone] | 0.0823 µM | 0.234 µM | 90%
11 | CN(CCN(C)C(=O)c1ccc2c(c1)c1c(n2C)CCC(C2CCOCC2)C1)C(=O)NC1CC1 (stereo not drawn) [N-[2-(cyclopropylcarbamoyl-methyl-amino)ethyl]-N,9-dimethyl-6-(oxan-4-yl)-5,6,7,8-tetrahydrocarbazole-3-carboxamide] | 0.0775 µM | 0.468 µM | 110%
12 | CN(CCCC(=O)NCCO)C(=O)c1ccc2c(c1)c1c(n2C)CC[C@@H](C2CCOCC2)C1 [(R)—N-(4-(2-Hydroxyethylamino)-4-oxobutyl)-N,9-dimethyl-3-(tetrahydro-2H-pyran-4-yl)-2,3,4,9-tetrahydro-1H-carbazole-6-carboxamide] | 0.069 µM | 0.173 µM | 120%
13 | CCN(CC(=O)NC(C)C)C(=O)c1ccc2c(c1)c1c(n2C)CCC(C2CCOCC2)C1 (stereo not drawn) [N-ethyl-9-methyl-6-(oxan-4-yl)-N-(propan-2-ylcarbamoylmethyl)-5,6,7,8-tetrahydrocarbazole-3-carboxamide] | 0.0313 µM | 0.0417 µM | 123%
14 | CCN(CC(=O)NC(C)C)C(=O)c1ccc2c(c1)c1c(n2C2CCC2)CCC(C2CCOCC2)C1 (stereo not drawn) [9-cyclobutyl-N-ethyl-6-(oxan-4-yl)-N-(propan-2-ylcarbamoylmethyl)-5,6,7,8-tetrahydrocarbazole-3-carboxamide] | 0.152 µM | 0.293 µM | 70%
15 | CCn1c2c(c3cc(C(=O)N(C)CCCC(=O)NCC(F)F)ccc31)CC(C1CCOCC1)CC2 (stereo not drawn) [N-[3-(2,2-difluoroethylcarbamoyl)propyl]-9-ethyl-N-methyl-6-(oxan-4-yl)-5,6,7,8-tetrahydrocarbazole-3-carboxamide] | 0.0452 µM | 0.0983 µM | 114%
16 | CCn1c2c(c3cc(C(=O)N(C)CCCC(=O)NCCF)ccc31)CC(C1CCOCC1)CC2 (stereo not drawn) [9-ethyl-N-[3-(2-fluoroethylcarbamoyl)propyl]-N-methyl-6-(oxan-4-yl)-5,6,7,8-tetrahydrocarbazole-3-carboxamide] | 0.0258 µM | 0.0603 µM | 119%
17 | CCS(=O)(=O)n1c2c(c3cc(C(=O)N4CCC(O)CC4)ccc31)CC(C1CCOCC1)CC2 (stereo not drawn) [[9-ethylsulfonyl-6-(oxan-4-yl)-5,6,7,8-tetrahydrocarbazol-3-yl]-(4-hydroxy-1-piperidyl)methanone] | 0.155 µM | 0.352 µM | 107%
18 | Cn1c2c(c3cc(C(=O)N4CCC[C@H](NC(=O)C5CC5)C4)ccc31)CC(C1CCOCC1)CC2 (stereo partly drawn) [N-[(3S)-1-[9-methyl-6-(oxan-4-yl)5,6,7,8-tetrahydrocarbazole-3-carbonyl]-3-piperidyl]cyclopropanecarboxamide] | 0.0434 µM | 0.0872 µM | 119%
